Reference: BindingDB's records for patent US20250368647 (Glaxosmithkline Intellectual Property Development, 2025)

Target: Sodium channel protein type 10 subunit alpha (Homo sapiens, UniProt Q9Y5Y9)
Assay: Pharmacological Assay
Description: Utilizing the voltage-clamp mode in the QPatch 48 HTX system a half inactivation state voltage protocol (V1/2) was used to determine pharmacological activity of compounds of the invention at Nav1.8 ion channels. A V1/2 protocol was utilized with the following voltage steps: a holding voltage of −100 mV was established followed by a 20 ms voltage step to 0 mV (P1), followed by an inactivating voltage step at −46 mV for 8 seconds, followed by a step to −100 mV for 20 ms, before a 20 ms step to 0 mV (P2), then returned to the holding voltage of −100 mV. This voltage protocol was repeated at a frequency of every 15 seconds, the current magnitude was quantified at the P2 step throughout the recording. Inhibition of the measured current amplitude with compounds of the invention was analyzed by fitting a 4-6 points dose-response curve allowing determination of the fifty percent inhibition concentration (IC50). P2 currents were normalized according to measurements made at baseline (Baseline, vehicle only), after compound (Input, at each test concentration), and after positive reference compound (FullResponse, to achieve complete block), fit to the following equation:n.ICPD=NormalizedCurrent=(Input-Baseline)(FullResponse-Baseline)[1570]To assess current run-down over the course of the experiment vehicle-only wells were utilized and the normalized current with vehicle-only (n.IVEH) was determined. To correct the compound response for run-down, the currents were corrected according to the following formula:n.IRD_Correct=(n.ICPD-n.IVEH)(1-n.IVEH)

Sequence of Sodium channel protein type 10 subunit alpha (Q9Y5Y9 whole entry): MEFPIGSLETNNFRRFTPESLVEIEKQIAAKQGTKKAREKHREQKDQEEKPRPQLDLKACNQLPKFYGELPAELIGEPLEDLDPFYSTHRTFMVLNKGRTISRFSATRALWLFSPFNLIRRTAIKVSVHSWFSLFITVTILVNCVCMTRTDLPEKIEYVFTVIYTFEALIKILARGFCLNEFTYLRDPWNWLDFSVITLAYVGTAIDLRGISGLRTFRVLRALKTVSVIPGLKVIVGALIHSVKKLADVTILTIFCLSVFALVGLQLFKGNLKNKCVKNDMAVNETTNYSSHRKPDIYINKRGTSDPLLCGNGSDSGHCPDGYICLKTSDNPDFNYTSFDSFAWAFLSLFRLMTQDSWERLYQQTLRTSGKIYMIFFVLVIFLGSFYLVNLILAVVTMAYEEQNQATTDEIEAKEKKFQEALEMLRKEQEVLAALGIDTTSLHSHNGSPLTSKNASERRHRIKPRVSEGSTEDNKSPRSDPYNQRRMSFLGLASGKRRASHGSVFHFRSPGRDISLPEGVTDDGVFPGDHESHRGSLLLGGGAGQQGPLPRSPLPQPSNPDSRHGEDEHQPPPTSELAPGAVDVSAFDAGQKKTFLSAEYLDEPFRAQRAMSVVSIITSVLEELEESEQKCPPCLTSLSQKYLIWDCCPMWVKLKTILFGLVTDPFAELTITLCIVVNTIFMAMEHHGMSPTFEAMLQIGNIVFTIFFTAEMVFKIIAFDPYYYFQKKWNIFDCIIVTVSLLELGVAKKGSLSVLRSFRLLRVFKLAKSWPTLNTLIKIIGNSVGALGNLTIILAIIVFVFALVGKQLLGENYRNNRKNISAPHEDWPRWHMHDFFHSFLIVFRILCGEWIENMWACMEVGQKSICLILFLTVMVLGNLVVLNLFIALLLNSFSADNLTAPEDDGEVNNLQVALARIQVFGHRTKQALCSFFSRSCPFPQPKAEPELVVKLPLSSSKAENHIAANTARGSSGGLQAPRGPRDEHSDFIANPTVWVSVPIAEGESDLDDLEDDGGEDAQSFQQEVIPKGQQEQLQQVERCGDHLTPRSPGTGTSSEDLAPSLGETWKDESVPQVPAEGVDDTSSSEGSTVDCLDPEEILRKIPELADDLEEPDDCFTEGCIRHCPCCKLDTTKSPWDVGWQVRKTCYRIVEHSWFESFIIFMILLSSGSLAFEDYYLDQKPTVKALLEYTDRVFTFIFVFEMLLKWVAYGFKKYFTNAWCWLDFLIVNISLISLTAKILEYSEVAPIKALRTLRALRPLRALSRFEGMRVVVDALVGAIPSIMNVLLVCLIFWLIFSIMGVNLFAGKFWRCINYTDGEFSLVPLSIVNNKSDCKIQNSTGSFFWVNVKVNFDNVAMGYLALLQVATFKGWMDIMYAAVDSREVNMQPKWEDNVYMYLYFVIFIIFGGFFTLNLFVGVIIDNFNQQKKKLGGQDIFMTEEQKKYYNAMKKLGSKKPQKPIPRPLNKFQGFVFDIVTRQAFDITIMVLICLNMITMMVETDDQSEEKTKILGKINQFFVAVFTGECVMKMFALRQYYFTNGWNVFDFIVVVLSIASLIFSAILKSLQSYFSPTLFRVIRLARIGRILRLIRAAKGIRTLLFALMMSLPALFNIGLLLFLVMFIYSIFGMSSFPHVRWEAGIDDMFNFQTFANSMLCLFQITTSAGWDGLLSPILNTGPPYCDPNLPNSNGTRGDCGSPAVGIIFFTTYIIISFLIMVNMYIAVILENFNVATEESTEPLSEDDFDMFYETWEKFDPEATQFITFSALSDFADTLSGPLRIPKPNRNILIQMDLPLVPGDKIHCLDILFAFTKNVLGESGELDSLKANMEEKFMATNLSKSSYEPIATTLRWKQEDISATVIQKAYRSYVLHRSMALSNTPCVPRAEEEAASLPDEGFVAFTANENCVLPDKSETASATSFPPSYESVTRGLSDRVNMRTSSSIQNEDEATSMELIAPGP

Structure (SMILES)	IC50
O=C1c2cc(OCC(F)(F)F)ccc2N2CN1c1ccc(=O)[nH]c1CCNCc1cc(F)ccc12 [US20250368647, Example 56]	1260 nM
O=C1c2ccc(C(F)(F)F)cc2N2CN1c1ccc(=O)[nH]c1CCCCCOc1cc(F)ccc12 [US20250368647, Example 19]	316 nM
O=C1c2cc(C(F)(F)F)ccc2N2CN1c1ccc(=O)[nH]c1CCNCc1cc(F)c(F)cc12 [US20250368647, Example 47]	200 nM

Molecules with a lower IC50, results first:

IC50	Structure (SMILES)
15.8 nM	CC1CCNc2[nH]c(=O)ccc2N2CN(c3cc(C(F)(F)F)c(F)cc3C2=O)c2ccc(F)c(F)c21 (stereo unspecified) [US20250368647, Example 131]
10 nM	O=C1c2cc(F)c(C(F)(F)F)cc2N2CN1c1ccc(=O)[nH]c1CCNCc1cc(OC(F)(F)F)ccc12 [US20250368647, Example 51]
3.16 nM	O=C1c2cc(F)c(C(F)(F)F)cc2N2CN1c1ccc(=O)[nH]c1CCNCc1c2ccc(OC(F)(F)F)c1F [US20250368647, Example 52]
